This note sets out measurements from ChEMBL document CHEMBL5678818, “Discovery of potent SOS1 inhibitors that block RAS activation via disruption of the RAS-SOS1 interaction” (Proc Natl Acad Sci U S A, 2019).

Each structure is given as a SMILES string.

The target in assay [1] is Serine/threonine-protein kinase Chk2 (Homo sapiens) (UniProt O96017). As to the kind of experiment: Inhibition of CHEK2 (unknown origin) assessed as residual activity at 1000 nM by KINOMEscan analysis relative to control.
Assay [2] has as its system Epidermal growth factor receptor (Homo sapiens), P00533 [L858R]. As to the kind of experiment: Inhibition of EGFR L858R mutant (unknown origin) assessed as residual activity at 1000 nM by KINOMEscan analysis relative to control.
Assay [3] has as its target T1, Ephrin type-A receptor 1 (Homo sapiens) (UniProt P21709).
T1 sequence (whole entry): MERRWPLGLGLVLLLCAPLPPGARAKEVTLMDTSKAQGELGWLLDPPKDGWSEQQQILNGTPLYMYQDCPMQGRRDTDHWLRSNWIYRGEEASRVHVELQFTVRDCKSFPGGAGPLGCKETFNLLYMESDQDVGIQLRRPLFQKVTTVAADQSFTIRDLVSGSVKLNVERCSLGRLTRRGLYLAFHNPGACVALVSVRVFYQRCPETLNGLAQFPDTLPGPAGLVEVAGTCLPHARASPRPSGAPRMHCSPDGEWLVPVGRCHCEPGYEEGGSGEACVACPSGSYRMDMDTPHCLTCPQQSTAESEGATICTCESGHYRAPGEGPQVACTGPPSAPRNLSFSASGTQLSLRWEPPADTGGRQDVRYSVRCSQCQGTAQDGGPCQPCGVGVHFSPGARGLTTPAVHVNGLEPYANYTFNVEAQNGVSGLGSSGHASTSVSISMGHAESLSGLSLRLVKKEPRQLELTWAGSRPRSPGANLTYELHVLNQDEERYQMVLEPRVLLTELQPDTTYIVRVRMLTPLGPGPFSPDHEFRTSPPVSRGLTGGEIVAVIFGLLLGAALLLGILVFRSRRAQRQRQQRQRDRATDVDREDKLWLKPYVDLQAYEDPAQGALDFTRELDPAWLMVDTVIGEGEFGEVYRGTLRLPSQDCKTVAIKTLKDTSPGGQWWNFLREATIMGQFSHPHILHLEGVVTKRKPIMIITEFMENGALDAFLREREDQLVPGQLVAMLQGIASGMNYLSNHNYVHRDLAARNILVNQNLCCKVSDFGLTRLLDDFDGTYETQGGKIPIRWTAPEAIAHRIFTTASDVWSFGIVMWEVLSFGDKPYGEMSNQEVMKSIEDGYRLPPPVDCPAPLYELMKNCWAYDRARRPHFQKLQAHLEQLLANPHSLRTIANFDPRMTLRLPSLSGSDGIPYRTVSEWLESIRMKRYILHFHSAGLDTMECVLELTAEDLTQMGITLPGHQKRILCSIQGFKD
As to the kind of experiment: Inhibition of EPHA1 (unknown origin) assessed as residual activity at 1000 nM by KINOMEscan analysis relative to control.

In assay [4] the target is T2, Mitogen-activated protein kinase kinase kinase 7 (Homo sapiens) (UniProt O43318).
T2 sequence (whole entry): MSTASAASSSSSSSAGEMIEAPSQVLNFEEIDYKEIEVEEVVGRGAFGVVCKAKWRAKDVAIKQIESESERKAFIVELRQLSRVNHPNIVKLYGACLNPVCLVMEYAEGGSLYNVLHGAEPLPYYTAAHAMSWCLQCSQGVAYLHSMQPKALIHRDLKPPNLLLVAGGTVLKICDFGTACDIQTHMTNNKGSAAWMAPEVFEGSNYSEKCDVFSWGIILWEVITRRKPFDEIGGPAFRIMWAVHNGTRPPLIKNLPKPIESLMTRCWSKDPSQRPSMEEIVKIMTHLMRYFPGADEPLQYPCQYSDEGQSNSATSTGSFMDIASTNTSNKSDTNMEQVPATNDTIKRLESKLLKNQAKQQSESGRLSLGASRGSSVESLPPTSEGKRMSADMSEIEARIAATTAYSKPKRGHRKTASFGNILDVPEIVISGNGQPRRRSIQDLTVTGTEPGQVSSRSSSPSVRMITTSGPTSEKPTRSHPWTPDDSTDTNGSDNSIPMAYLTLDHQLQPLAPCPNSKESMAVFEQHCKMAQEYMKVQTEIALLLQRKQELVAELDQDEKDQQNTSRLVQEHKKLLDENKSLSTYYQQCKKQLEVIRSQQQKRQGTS
As to the kind of experiment: Inhibition of TAK1 (unknown origin) assessed as residual activity at 1000 nM by KINOMEscan analysis relative to control.

The target of a further assay is GTPase KRas/RAF1 (Homo sapiens, UniProt P01116+P04049). As to the kind of experiment: Inhibition of N-terminal His10-tagged wild-type recombinant human KRAS (1 to 169 residues) expressed in Escherichia coli/N-terminal GST-tagged recombinant human CRAF RBD (51 to 131 residues) expressed in Escherichia coli protein-protein interaction preincubated for 30 mins with KRAS followed by CRAF RBD addition measured after 60 mins in presence of anti-6His-XL665/GTP by HTRF analysis. On the technique in general: Time-resolved FRET reads energy transfer from a long-lived donor to a nearby acceptor.

For the compound `COc1cc2nc(C)nc(N[C@H](C)c3cccc(-c4cn[nH]c4)c3)c2cc1OC`, the Activity in assay [1] was 89%; in assay [2], 100%; in assay [3], 39%; in assay [4], 100%.

By IC50 is commonly meant the point on the concentration scale where inhibition reaches its midpoint. On to `COc1cc2ncnc(N[C@H](C)c3cccc4ccccc34)c2cc1OC`, for which the half-maximal inhibitory concentration (IC50) on GTPase KRas/RAF1 is above 20 µM. For the same compound, the Activity in assay [1] turned out to be 73%; in assay [2], 1.7%; in assay [3], 100%; in assay [4], 85%.

For `COc1cc2nc(C)nc(NC(C)c3ccc(-c4cnc5n4CCC5)s3)c2cc1OC` (stereo not given), the IC50 at GTPase KRas/RAF1 is above 20 µM.
